Results: patent US20230265524A1, “IMMUNOGENIC RETROELEMENTS AND THEIR USE IN CANCER THERAPY” (UNIVERSITY HEALTH NETWORK, priority 2020, published 2023)

Tests used:
[1] = tested on: patient-derived CRC cells; experiment: in vivo LDA measuring tumour-initiation potential; design: species or system NSG mice
Description: F Schematic representation of in vivo LDA measuring tumour-initiation potential. NSG mice were injected with 10,000 cells (n=8 tumours), 1,000 cells (n=8 tumours), 100 cells (n=8 tumours) and 10 cells (n=16 tumours).
G, Tumour-initiating cell frequency from the in vivo LDA of patient-derived CRC cells for each condition. ADAR1WT 5-AZA-CdR vs ADAR1KDA 5-AZA-CdR P=0.00862; ADAR1WT 5-AZA-CdR vs ADAR1KDB 5-AZA-CdR P=0.009; chi-square test.
One of the major challenges facing conventional chemotherapy is the persistence of cancer initiating cells (CICs), often resulting in relapse^38-40. We and others have previously shown that 5-AZA-CdR treatment can target colorectal cancer CICs by inducing the viral mimicry response^1,41. We therefore tested whether ADAR1^KD by itself or in combination with 5-AZA-CdR can decrease tumour initiation. To this end, we first employed an in vitro sphere initiation assay followed by limiting dilution analysis (LDA) using patient-derived CRC cells. […] In addition, we performed in vivo tumour initiation assays by injecting serially diluted patient-derived CRC cells into NSG immunodeficient mice and inspected tumour engraftment for up to 6 months after injection (FIG. 12F).

[2] = tested on: LIM1215 colorectal cancer cell lines; experiment: ISG relative expression in LIM1215 cells; assay type: cell-based, human; conditions: LIM1215, ADAR1 KD vs WT, 300 nM for 5 days
Description: B) Interferon-stimulated genes (MDA5, IRF7 and DDX58) relative expression in ADAR1^WT and ADAR1^KD LIM1215 colorectal cancer cell lines treated with 300 nM 5-AZA-CdR for 5 days.
(§1) Based on these findings, we hypothesized that ADAR1 depletion would synergize with the viral mimicry response induced by DNMTi treatment. To assess how ADAR1 depletion affects 5-AZA-CdR treated samples, we performed RNA-seq analyses in patient-derived CRC cells. […] As a molecular read-out of dsRNA pattern recognition activation, we measured MAVS aggregation in the mitochondrial fraction of cell lysates^34. […] Taken together, our findings establish that ADAR1 acts as a negative feedback loop, restricting the viral mimicry response induced by DNMTi treatment in cancer cells.

[3] = tested on: patient-derived CRC cells; experiment: survival of patient-derived CRC cells, luminescence dose-response; assay type: cell-based, human; conditions: in vitro, ADAR1-knockdown vs wild-type patient-derived CRC cells
Description: A, Survival of wild-type ADAR1 (black) and ADAR1-knockdown (gray) patient-derived CRC cells after treatment with 5-AZA-CdR. Luminescence signal was normalized, and dose-response curves and EC50 values were calculated using a nonlinear regression curve fit.
Finally, we sought to investigate whether ADAR1 inhibition would synergize with epigenetic therapy to increase the anti-tumour response. […] To examine the potential synergy in vivo, we injected ADAR1^KDA/B or wildtype patient-derived xenograft CRC cells subcutaneously into immune-deficient NOD.Cg-Prkdc (NSG) mice, and treated the mice with 5-AZA-CdR or vehicle (PBS) (FIG. 12B and FIG. 13A). […] Thus, ADAR1 inhibition in human cancer cells profoundly sensitizes tumours to 5-AZA-CdR treatment in vivo.

ADAR1 = experiment: genome-wide A-to-I editing loci counts in Alus (RNA-seq); assay type: cell-based, human
Description: G, Genome-wide A-to-I editing loci counts in Alus in the RNA-seq data performed in the total cytoplasmic fraction (‘Total CytoRNA’) and in the MDA5-protected fraction (‘MDA5-protected’) at the mock-treated (MT) ADAR1^WT, 5-AZA-CdR-treated ADAR1^WT, mock-treated ADAR1^KD, and 5-AZA-CdR-treated ADAR1^KD conditions.
Next, we tested whether epigenetic therapy can induce and activate ADAR1 editing activity.

[4] = tested on: HT29 colorectal cancer cell lines; experiment: ISG relative expression in HT29 cells; assay type: cell-based, human; conditions: HT29, ADAR1 KD vs WT, 300 nM for 5 days
Description: D) Interferon-stimulated genes (MDA5, ISG15 and DDX58) relative expression in ADAR1^WT and ADAR1^KD HT29 colorectal cancer cell lines treated with 300 nM 5-AZA-CdR for 5 days. Data are mean±s.e.m. (n=3 from three independent experiments). *P<0.05, **P<0.01, ***P<0.001, ****P<0.0001, Tukey-corrected two-way ANOVA.
as §1

Nc1ncn([C@H]2C[C@H](O)[C@@H](CO)O2)c(=O)n1 [5-AZA-CdR]
Number of Engrafted tumours/number of injected tumours ([1]; ADAR1^KDA, 10 cells injected): 0/16 | Number of Engrafted tumours/number of injected tumours ([1]; ADAR1^KDA, 100 cells injected): 0/8 | Number of Engrafted tumours/number of injected tumours ([1]; ADAR1^KDA, 1,000 cells injected): 3/8 | Number of Engrafted tumours/number of injected tumours ([1]; ADAR1^KDA, 10,000 cells injected): 5/8 | tumour engraftment potential ([1]; ADAR1^KDA/B cells relative to wild-type, up to 6 months): substantially reduced tumour engraftment potential | Number of Engrafted tumours/number of injected tumours ([1]; ADAR1^KDB, 10 cells injected): 0/16 | Number of Engrafted tumours/number of injected tumours ([1]; ADAR1^KDB, 100 cells injected): 0/8 | Number of Engrafted tumours/number of injected tumours ([1]; ADAR1^KDB, 1,000 cells injected): 1/8 | Number of Engrafted tumours/number of injected tumours ([1]; ADAR1^KDB, 10,000 cells injected): 6/8 | Number of Engrafted tumours/number of injected tumours ([1]; ADAR1^WT, 10 cells injected): 0/16 | Number of Engrafted tumours/number of injected tumours ([1]; ADAR1^WT, 100 cells injected): 3/8 | Number of Engrafted tumours/number of injected tumours ([1]; ADAR1^WT, 1,000 cells injected): 5/8 | Number of Engrafted tumours/number of injected tumours ([1]; ADAR1^WT, 10,000 cells injected): 7/8 | expression of IFN stimulated genes (ISGs) [2]: enhanced upon ADAR1 depletion | reduction of EC50 by ADAR1 knock-down [3]: four to six-fold reduction | A-to-I editing of MDA5-protected Alus (ADAR1; ADAR1-depleted cells): depletion of ADAR1 abrogated this effect | A-to-I editing of MDA5-protected Alus (ADAR1; ADAR1 WT cells): genome-wide increased A-to-I editing | expression of IFN stimulated genes (ISGs) [4]: enhanced upon ADAR1 depletion
